{"source": "patent US20220267380A1", "about": "“Glycopeptides Increasing Lipid Synthesis” (TFCHEM, priority 2019, published 2022)", "tested_on": "normal human dermal fibroblasts (NHDF)", "assay": "Gene expression in NHDF, full transcriptome analysis with Affymetrix U219 microarray", "format": "cell-based", "conditions": "NHDF", "data": [{"smiles": "N[C@@H](CCCCNCC(F)(F)[C@]1(O)O[C@H](CO)[C@H](O)[C@H](O)[C@H]1O)C(=O)O", "note": "[Compound 3]", "values": [{"measurement": "effect of treatment of NHDF on lipid synthesis (transcriptional)", "result": "up regulation of lipids synthesis, including fatty acids, cholesterol or ceramides"}, {"measurement": "Fold change, ACOT1///ACOT2", "setting": "10 mg/ml, 24 h, vs control", "result": 2.02}, {"measurement": "Fold change, APOD", "setting": "10 mg/ml, 24 h, vs control", "result": 0.44}, {"measurement": "Fold change, DHCR7", "setting": "10 mg/ml, 24 h, vs control", "result": 2.95}, {"measurement": "Fold change, FADS2", "setting": "10 mg/ml, 24 h, vs control", "result": 2.20}, {"measurement": "Fold change, GBAP1", "setting": "10 mg/ml, 24 h, vs control", "result": 2.45}, {"measurement": "Fold change, HACD1", "setting": "10 mg/ml, 24 h, vs control", "result": 2.63}, {"measurement": "Fold change, HMGCS1", "setting": "10 mg/ml, 24 h, vs control", "result": 2.18}, {"measurement": "Fold change, LRP8", "setting": "10 mg/ml, 24 h, vs control", "result": 2.98}, {"measurement": "Fold change, MVD", "setting": "10 mg/ml, 24 h, vs control", "result": 2.80}, {"measurement": "Fold change, NCOR1", "setting": "10 mg/ml, 24 h, vs control", "result": 0.44}, {"measurement": "Fold change, NEU1", "setting": "10 mg/ml, 24 h, vs control", "result": 3.17}, {"measurement": "Fold change, NPC1", "setting": "10 mg/ml, 24 h, vs control", "result": 2.45}, {"measurement": "Fold change, PHLDB2", "setting": "10 mg/ml, 24 h, vs control", "result": 2.14}, {"measurement": "Fold change, PHYH", "setting": "10 mg/ml, 24 h, vs control", "result": 2.37}, {"measurement": "Fold change, PLA2G15", "setting": "10 mg/ml, 24 h, vs control", "result": 2.01}, {"measurement": "Fold change, PLA2G16", "setting": "10 mg/ml, 24 h, vs control", "result": 2.30}, {"measurement": "Fold change, PRKAB2", "setting": "10 mg/ml, 24 h, vs control", "result": 0.35}, {"measurement": "Fold change, PTGDS", "setting": "10 mg/ml, 24 h, vs control", "result": 2.50}, {"measurement": "Fold change, SOAT1", "setting": "10 mg/ml, 24 h, vs control", "result": 2.08}, {"measurement": "Fold change, SPHK1", "setting": "10 mg/ml, 24 h, vs control", "result": 2.18}, {"measurement": "Fold change, SREBF1", "setting": "10 mg/ml, 24 h, vs control", "result": 2.16}, {"measurement": "Fold change, TXNRD1", "setting": "10 mg/ml, 24 h, vs control", "result": 2.22}, {"measurement": "Fold change, VAC14", "setting": "10 mg/ml, 24 h, vs control", "result": 2.10}, {"measurement": "Fold change, SCD", "setting": "10 mg/ml, 24 h, vs control, Affymetrix probe set 11715561_s_at", "result": 4.60}, {"measurement": "Fold change, SCD", "setting": "10 mg/ml, 24 h, vs control, Affymetrix probe set 11715562_x_at", "result": 4.82}, {"measurement": "Fold change, SCD", "setting": "10 mg/ml, 24 h, vs control, Affymetrix probe set 11715563_s_at", "result": 4.79}, {"measurement": "Fold change, G6PD", "setting": "10 mg/ml, 24 h, vs control, Affymetrix probe set 11716292_a_at", "result": 2.00}, {"measurement": "Fold change, G6PD", "setting": "10 mg/ml, 24 h, vs control, Affymetrix probe set 11716293_x_at", "result": 2.04}, {"measurement": "Fold change, INSIG1", "setting": "10 mg/ml, 24 h, vs control, Affymetrix probe set 11716338_a_at", "result": 2.36}, {"measurement": "Fold change, INSIG1", "setting": "10 mg/ml, 24 h, vs control, Affymetrix probe set 11716339_a_at", "result": 2.78}, {"measurement": "Fold change, PPT1", "setting": "10 mg/ml, 24 h, vs control, Affymetrix probe set 11716533_a_at", "result": 2.40}, {"measurement": "Fold change, LSS", "setting": "10 mg/ml, 24 h, vs control, Affymetrix probe set 11717620_a_at", "result": 2.41}, {"measurement": "Fold change, EBP", "setting": "10 mg/ml, 24 h, vs control, Affymetrix probe set 11717859_a_at", "result": 2.52}, {"measurement": "Fold change, GBA///GBAP1", "setting": "10 mg/ml, 24 h, vs control, Affymetrix probe set 11719908_a_at", "result": 2.30}, {"measurement": "Fold change, GM2A", "setting": "10 mg/ml, 24 h, vs control, Affymetrix probe set 11719921_s_at", "result": 2.39}, {"measurement": "Fold change, GM2A", "setting": "10 mg/ml, 24 h, vs control, Affymetrix probe set 11719923_at", "result": 2.09}, {"measurement": "Fold change, HSD17B14", "setting": "10 mg/ml, 24 h, vs control, Affymetrix probe set 11720588_a_at", "result": 2.17}, {"measurement": "Fold change, SERINC2", "setting": "10 mg/ml, 24 h, vs control, Affymetrix probe set 11721046_a_at", "result": 2.54}, {"measurement": "Fold change, TPP1", "setting": "10 mg/ml, 24 h, vs control, Affymetrix probe set 11725032_a_at", "result": 2.23}, {"measurement": "Fold change, ME1", "setting": "10 mg/ml, 24 h, vs control, Affymetrix probe set 11726265_at", "result": 2.41}, {"measurement": "Fold change, LSS", "setting": "10 mg/ml, 24 h, vs control, Affymetrix probe set 11731324_a_at", "result": 3.12}, {"measurement": "Fold change, GBA///GBAP1", "setting": "10 mg/ml, 24 h, vs control, Affymetrix probe set 11736100_a_at", "result": 2.69}, {"measurement": "Fold change, CHKA", "setting": "10 mg/ml, 24 h, vs control, Affymetrix probe set 11736285_a_at", "result": 2.53}, {"measurement": "Fold change, CHKA", "setting": "10 mg/ml, 24 h, vs control, Affymetrix probe set 11736286_a_at", "result": 2.73}, {"measurement": "Fold change, ASAH1", "setting": "10 mg/ml, 24 h, vs control, Affymetrix probe set 11740582_a_at", "result": 2.18}, {"measurement": "Fold change, PPT1", "setting": "10 mg/ml, 24 h, vs control, Affymetrix probe set 11742107_a_at", "result": 2.25}, {"measurement": "Fold change, ASAH1", "setting": "10 mg/ml, 24 h, vs control, Affymetrix probe set 11743547_a_at", "result": 2.16}, {"measurement": "Fold change, PCYT2", "setting": "10 mg/ml, 24 h, vs control, Affymetrix probe set 11744044_s_at", "result": 2.15}, {"measurement": "Fold change, FADS1", "setting": "10 mg/ml, 24 h, vs control, Affymetrix probe set 11745459_a_at", "result": 3.04}, {"measurement": "Fold change, LPCAT3", "setting": "10 mg/ml, 24 h, vs control, Affymetrix probe set 11746281_a_at", "result": 2.48}, {"measurement": "Fold change, LDLR", "setting": "10 mg/ml, 24 h, vs control, Affymetrix probe set 11746974_a_at", "result": 2.37}, {"measurement": "Fold change, GM2A", "setting": "10 mg/ml, 24 h, vs control, Affymetrix probe set 11747178_x_at", "result": 2.24}, {"measurement": "Fold change, PCYT2", "setting": "10 mg/ml, 24 h, vs control, Affymetrix probe set 11747322_s_at", "result": 2.72}, {"measurement": "Fold change, LDLR", "setting": "10 mg/ml, 24 h, vs control, Affymetrix probe set 11748045_x_at", "result": 2.10}, {"measurement": "Fold change, SERINC2", "setting": "10 mg/ml, 24 h, vs control, Affymetrix probe set 11748053_x_at", "result": 2.92}, {"measurement": "Fold change, TM7SF2", "setting": "10 mg/ml, 24 h, vs control, Affymetrix probe set 11748279_s_at", "result": 2.25}, {"measurement": "Fold change, GBA///GBAP1", "setting": "10 mg/ml, 24 h, vs control, Affymetrix probe set 11748292_a_at", "result": 2.58}, {"measurement": "Fold change, TPP1", "setting": "10 mg/ml, 24 h, vs control, Affymetrix probe set 11748341_a_at", "result": 2.60}, {"measurement": "Fold change, TPP1", "setting": "10 mg/ml, 24 h, vs control, Affymetrix probe set 11748342_x_at", "result": 2.34}, {"measurement": "Fold change, EBP", "setting": "10 mg/ml, 24 h, vs control, Affymetrix probe set 11749332_x_at", "result": 2.48}, {"measurement": "Fold change, ABHD4", "setting": "10 mg/ml, 24 h, vs control, Affymetrix probe set 11749343_a_at", "result": 2.28}, {"measurement": "Fold change, ABHD4", "setting": "10 mg/ml, 24 h, vs control, Affymetrix probe set 11749376_a_at", "result": 2.13}, {"measurement": "Fold change, ME1", "setting": "10 mg/ml, 24 h, vs control, Affymetrix probe set 11750913_a_at", "result": 2.67}, {"measurement": "Fold change, GBA", "setting": "10 mg/ml, 24 h, vs control, Affymetrix probe set 11750975_x_at", "result": 2.34}, {"measurement": "Fold change, GBA///GBAP1", "setting": "10 mg/ml, 24 h, vs control, Affymetrix probe set 11751085_a_at", "result": 2.84}, {"measurement": "Fold change, GBA", "setting": "10 mg/ml, 24 h, vs control, Affymetrix probe set 11751086_x_at", "result": 2.57}, {"measurement": "Fold change, GBA///GBAP1", "setting": "10 mg/ml, 24 h, vs control, Affymetrix probe set 11751098_a_at", "result": 2.57}, {"measurement": "Fold change, DHCR24", "setting": "10 mg/ml, 24 h, vs control, Affymetrix probe set 11751337_a_at", "result": 2.29}, {"measurement": "Fold change, DHCR24", "setting": "10 mg/ml, 24 h, vs control, Affymetrix probe set 11751338_x_at", "result": 2.44}, {"measurement": "Fold change, G6PD", "setting": "10 mg/ml, 24 h, vs control, Affymetrix probe set 11752486_a_at", "result": 3.18}]}]}
